In assay [1] the test system is A/Minfang/151/2000 (wild-type H3N2). Description: microbe, parasite or virus in culture. Format: cell-based. The note with it: Influenza A virus, H3N2, MDCK.
Assay [2] concerns A/Puerto Rico/8/34 (wild-type H1N1). Kind of assay: microbe, parasite or virus in culture. Format: cell-based. The note with it: Influenza A virus.
The test system of the next assay is TNF-α. Format: cell-based, human. As to TNF-α expression in cell culture supernatant in comparison with the model group: test concentration or dose not given here.
In assay [3] the target is neuraminidase (NA) of A/PR/8/34 (H1N1) (Influenza A virus, UniProt P03468). Kind of assay: biochemical.
Setting [4] is: read-out: IC50, CPE reduction, A/Minfang/151/2000 (H3N2), Drug administration after virus inoculation.
The mark [5] stands for this setting: read-out: IC50, CPE reduction, A/Minfang/151/2000 (H3N2), Pre-incubation of virus and drug.
The mark [6] stands for this setting: read-out: IC50, CPE reduction, A/Minfang/151/2000 (H3N2), Simultaneous action of virus and drug.
The mark [7] stands for this setting: read-out: IC50, CPE reduction, A/Minfang/151/2000 (H3N2), Virus inoculation after drug administration.
Setting [8] is: H1N1 / PR/8, MDCK, read-out: IC50, CPE reduction, A/PR/8/34 (H1N1), Drug administration after virus inoculation.
The mark [9] stands for this setting: H1N1 / PR/8, MDCK, read-out: IC50, CPE reduction, A/PR/8/34 (H1N1), Pre-incubation of virus and drug.
Setting [10] is: H1N1 / PR/8, MDCK, read-out: IC50, CPE reduction, A/PR/8/34 (H1N1), Simultaneous action of virus and drug.
The mark [11] stands for this setting: H1N1 / PR/8, MDCK, read-out: IC50, CPE reduction, A/PR/8/34 (H1N1), Virus inoculation after drug administration.
[12] abbreviates: IC50, NA inhibition test, A/PR/8/34 (H1N1).
[13] abbreviates: read-out: IC50, CPE reduction, H3N2 wild-type, in the four modes of action tested.
Where [14] appears, read: H1N1, MDCK, read-out: IC50, CPE reduction, H1N1 wild-type, in the four modes of action tested.

Consider 18 molecules from publication PMC7026480, “Discovery of Multitarget-Directed Ligands Against Influenza A Virus From Compound Yizhihao Through a Predictive System for Compound-Protein Interactions” (Frontiers in Cellular and Infection Microbiology, 2020).

Like-named read-outs stand apart in the source and are kept apart here.

neuraminidase (NA) of A/PR/8/34 (H1N1), sequence (P03468 whole entry, looked up): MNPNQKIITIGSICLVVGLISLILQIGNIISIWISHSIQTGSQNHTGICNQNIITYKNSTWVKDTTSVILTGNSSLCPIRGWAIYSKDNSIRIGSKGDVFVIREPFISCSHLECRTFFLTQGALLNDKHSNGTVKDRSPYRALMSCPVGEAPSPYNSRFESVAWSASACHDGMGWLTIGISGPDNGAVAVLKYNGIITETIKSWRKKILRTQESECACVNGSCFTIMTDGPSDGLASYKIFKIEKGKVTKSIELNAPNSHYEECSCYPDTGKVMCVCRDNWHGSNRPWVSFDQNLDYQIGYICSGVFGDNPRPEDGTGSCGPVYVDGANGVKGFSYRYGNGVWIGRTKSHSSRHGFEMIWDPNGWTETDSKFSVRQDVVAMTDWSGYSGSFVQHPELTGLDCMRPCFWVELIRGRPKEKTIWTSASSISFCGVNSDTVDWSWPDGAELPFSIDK

As to `O=c1cc(-c2ccc(O)cc2)oc2cc(O)cc(O)c12` [Apigenin], the IC50 in assay [1] (setting [4]) was above 100 µM; in assay [1] (setting [5]) it was 9.28 ± 2.03 µM; in assay [1] (setting [6]) it was 15.8 ± 1 µM; in assay [1] (setting [7]) it was above 100 µM; in assay [2] (setting [8]), above 100 µM; in assay [2] (setting [9]), 16.7 ± 1.77 µM. Besides, the IC50 in assay [2] (setting [10]) was 9.06 ± 0.41 µM; in assay [2] (setting [11]), above 100 µM.

Turning to `O=c1cc(-c2ccc(O)c(O)c2)oc2c([C@@H]3O[C@H](CO)[C@@H](O)[C@H](O)[C@H]3O)c(O)cc(O)c12` [Orientin], the “TNF-α expression in cell culture supernatant in comparison with the model group” value (from here on “TNF-α expression”) with TNF-α is recorded as “significantly less TNF-α”. Also, in assay [3] (setting [12]), the IC50 amounted to 53.7 ± 9.98 µM.

On to `COc1ccc(-c2cc(=O)c3c(OC)c(OC)c(OC)cc3o2)cc1OC` [sinensetin], for which the “TNF-α expression” value in the assay on TNF-α is “significantly less TNF-α”.

Regarding cedar acid, the “TNF-α expression” value in the assay with TNF-α is reported as “significantly less TNF-α”.

Turning to `O=C(/C=C/c1ccc(O)cc1)c1ccc(O)cc1O` [isoliquiritigenin], in the assay on TNF-α, the “TNF-α expression” value is on record as “significantly less TNF-α” and the “effect on TNF-α compared with positive drugs” value is given as “greater effect on TNF-α than positive drugs”.

Consider `C=CCC(=NOS(=O)(=O)O)S[C@@H]1O[C@H](CO)[C@@H](O)[C@H](O)[C@H]1O` (stereo in doubt) [sinigrin], for which the “TNF-α expression” value in the assay on TNF-α was “significantly less TNF-α”.

Consider `Cc1cc(O)c2c(c1)C(=O)c1cc(O)cc(O)c1C2=O` [Emodin], for which the IC50 is above 100 µM in assay [1] (setting [4]); 18.2 ± 1.02 µM in assay [1] (setting [5]); 55.9 ± 6 µM in assay [1] (setting [6]); above 100 µM in assay [1] (setting [7]); above 100 µM in assay [2] (setting [8]); 55.9 ± 9.8 µM in assay [2] (setting [9]). Moreover, the IC50 in assay [2] (setting [10]) was 6.53 ± 0.29 µM; in assay [2] (setting [11]) it was above 100 µM.

On to `C=C[C@@H]1CNC(=S)O1` [Epigoitrin], for which, in the assay on TNF-α, the “TNF-α expression” value was “significantly less TNF-α”. Further, the IC50 in assay [3] was above 100 µM.

As to `O=C1Nc2ccccc2/C1=C1/Nc2ccccc2C1=O` [Indirubin], the IC50 was above 100 µM in assay [1] (setting [4]); above 100 µM in assay [1] (setting [5]); above 100 µM in assay [1] (setting [6]); 52.6 ± 27.4 µM in assay [1] (setting [7]); above 100 µM in assay [2] (setting [8]); above 100 µM in assay [2] (setting [9]). The IC50 in assay [2] (setting [10]) and in assay [2] (setting [11]) was above 100 µM in each case.

In the case of `COc1ccc(-c2cc(=O)c3c(O)cc(O[C@@H]4O[C@H](CO[C@@H]5O[C@@H](C)[C@H](O)[C@@H](O)[C@H]5O)[C@@H](O)[C@H](O)[C@H]4O)cc3o2)cc1` [linarin], in the assay with TNF-α, the “TNF-α expression” value is recorded as “significantly less TNF-α”.

On to `C=C(C(=O)O)[C@H]1CC[C@H](C)[C@@H]2CC(=O)C(C)=C2C1` (stereo in doubt) [Rupestonic acid], for which the “TNF-α expression” value with TNF-α is “significantly less TNF-α”. The IC50 in assay [3] (read-out: IC50, NA inhibition test, A/PR/8/34 (H1N1)) was above 100 µM.

In the case of `COc1ccc(-c2cc(=O)c3c(O)cc(O)cc3o2)cc1` [Acacetin], the IC50 is above 100 µM in assay [1] (setting [4]); 12.5 ± 5.46 µM in assay [1] (setting [5]); 20.5 ± 0.86 µM in assay [1] (setting [6]); 72.5 ± 11.7 µM in assay [1] (setting [7]); 62 ± 5.91 µM in assay [2] (setting [8]); 77.4 ± 25.7 µM in assay [2] (setting [9]). Besides, the IC50 in assay [2] (setting [10]) and in assay [2] (setting [11]) was above 100 µM in each case.

With `O=C1c2ccccc2-n2c1nc1ccccc1c2=O` [Tryptanthrin], the IC50 in assay [1] (setting [4]) was above 100 µM; in assay [1] (setting [5]) it was 17.7 ± 1.74 µM; in assay [1] (setting [6]) it was 31.8 ± 11.6 µM; in assay [1] (setting [7]) it was 76.3 ± 3.4 µM; in assay [2] (setting [8]) it was above 100 µM; in assay [2] (setting [9]) it was 72 ± 23.6 µM. Further, the IC50 in assay [2] (setting [10]) and in assay [2] (setting [11]) was above 100 µM each time. Further, the “TNF-α expression” value with TNF-α is “except tryptanthrin, were associated with significantly less TNF-α”.

With `NC(=O)c1ncn([C@@H]2O[C@H](CO)[C@@H](O)[C@H]2O)n1` [Ribavirin, ribavirin, reference compound], the IC50 in assay [1] (setting [4]) was 22.5 ± 6.16 µM; in assay [1] (setting [5]), 9.18 ± 0.99 µM; in assay [1] (setting [6]), 21.7 ± 0.97 µM; in assay [1] (setting [7]), 62.5 ± 16.2 µM; in assay [1] (setting [13]) it was below 100 µM; in assay [2] (setting [14]), below 100 µM. Besides, the IC50 in assay [2] (setting [8]) is 16.1 ± 1.47 µM; in assay [2] (setting [9]), 10.4 ± 2.19 µM; in assay [2] (setting [10]) it was 16.4 ± 2.95 µM; in assay [2] (setting [11]), 47.5 ± 7.94 µM.

With `O=C(/C=C/c1ccc(O)c(O)c1)O[C@@H]1C[C@](O)(C(=O)O)C[C@@H](O)[C@H]1O` [Chlorogenic acid], in the assay on TNF-α, the “TNF-α expression” value is on record as “significantly less TNF-α”. The molecule also came in with an IC50 in assay [3] (setting [12]) of 64.6 ± 6.97 µM.

As to `O=c1cc(-c2ccc(O)c(O)c2)oc2cc(O)cc(O)c12` [Luteolin], the IC50 in assay [1] (setting [4]) was above 100 µM; in assay [1] (setting [5]), 44.7 ± 20 µM; in assay [1] (setting [6]), above 100 µM; in assay [1] (setting [7]), above 100 µM; in assay [2] (setting [8]), above 100 µM; in assay [2] (setting [9]) it was 4.53 ± 0.92 µM. Besides, the IC50 in assay [2] (setting [10]) was 7.08 ± 0.3 µM; in assay [2] (setting [11]), above 100 µM. Also, the “TNF-α expression” value in the assay on TNF-α was “significantly less TNF-α”. Moreover, the “effect on TNF-α compared with positive drugs” value in the assay with TNF-α is reported as “greater effect on TNF-α than positive drugs”.

Take `O=c1c(O)c(-c2ccc(O)c(O)c2)oc2cc(O)cc(O)c12` [Quercetin]: the IC50 in assay [1] (setting [4]) was above 100 µM; in assay [1] (setting [5]) it was 9.99 ± 2.84 µM; in assay [1] (setting [6]), 18.3 ± 3.52 µM; in assay [1] (setting [7]), above 100 µM; in assay [2] (setting [8]), above 100 µM; in assay [2] (setting [9]) it was 8.59 ± 1.34 µM. Moreover, the results for the IC50 in assay [2] (setting [10]) and in assay [2] (setting [11]) were 5.41 ± 0.14 µM and above 100 µM, respectively.

For the molecule `CCOC(=O)C1=C[C@@H](OC(CC)CC)[C@H](NC(C)=O)[C@@H](N)C1` [Oseltamivir, oseltamivir phosphate, reference compound], the IC50 is 77.9 ± 22.1 µM in assay [1] (setting [4]); 6.25 ± 2.6 µM in assay [1] (setting [5]); 8.47 ± 1.73 µM in assay [1] (setting [6]); 54.5 ± 14.2 µM in assay [1] (setting [7]); below 100 µM in assay [1] (setting [13]); below 100 µM in assay [2] (setting [14]). In addition, the IC50 in assay [2] (setting [8]) came to 83.4 ± 15.6 µM; in assay [2] (setting [9]), 74.9 ± 20.7 µM; in assay [2] (setting [10]) it was 4.45 ± 0.24 µM; in assay [2] (setting [11]) it was 11.4 ± 7.44 µM.
